This experiment has as its target human PDE1B enzyme (Homo sapiens (Human), UniProt Q01064). The experiment in a line: IMAP TR-FRET PDE1B enzymatic assay. The experiment is classed as biochemical. The settings on record: negative log of half-maximal molar inhibitory concentration, 200 nM FAM-cAMP, values given as bins; for IC50: read-out: PDE1b (pIC50) (converted). Summed up: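 Full-length GST-tagged human PDE1B (250 pg/well) in IMAP BSA buffer with 10 U/ml calmodulin and 2.5 mM CaCl2; compound pre-incubated 5 min at room temperature, then 200 nM (final) FAM-cAMP for 30 min. IMAP binding reagent/Tb added, 1 h; TR-FRET 520/490 ratio read. IC50 from sigmoidal dose-response fit.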
(Time-resolved FRET reads energy transfer from a long-lived donor to a nearby acceptor.)

`Cc1oc2ncnc(NC3(C)CC3)c2c1C(=O)NC(C)c1ccccn1` (centres unmarked) [Example 77, 6-Methyl-4-[(1-methylcyclopropyl)amino]-N-[1-(pyridin-2-yl)ethyl]furo[2,3-d]pyrimidine-5-carboxamide]: the IC50 was 10 to 100 nM.
Take `Cc1oc2ncnc(NC3(C)CC3)c2c1C(=O)NC(C)(C)c1ccccn1` [Example 78, 6-Methyl-4-[(1-methylcyclopropyl)amino]-N-[2-(pyridin-2-yl)propan-2-yl]furo[2,3-d]pyrimidine-5-carboxamide]: the IC50 was 10 to 100 nM.
With `Cc1oc2ncnc(NC3(C)CC3)c2c1C(=O)NC1(c2ccccn2)CC1` [Example 79, 6-Methyl-4-[(1-methylcyclopropyl)amino]-N-[1-(pyridin-2-yl)cyclopropyl]furo[2,3-d]pyrimidine-5-carboxamide], the IC50 is 10 to 100 nM.
Regarding `CNC(=O)c1c(C)oc2ncnc(NC3(C)CC3)c12` [Example 80, N,6-Dimethyl-4-[(1-methylcyclopropyl)amino]furo[2,3-d]pyrimidine-5-carboxamide], the IC50 was 100 to 1000 nM.
Still for that read-out and setting: the figure for `Cc1oc2ncnc(NC3(C)CC3)c2c1C(=O)N(C)C` [Example 81, N,N,6-Trimethyl-4-[(1-methylcyclopropyl)amino]furo[2,3-d]pyrimidine-5-carboxamide] is 100 to 1000 nM; for `CCNC(=O)c1c(C)oc2ncnc(NC3(C)CC3)c12` [Example 82, N-Ethyl-6-methyl-4-[(1-methylcyclopropyl)amino]furo[2,3-d]pyrimidine-5-carboxamide] it is 10 to 100 nM; for `Cc1oc2ncnc(NC3(C)CC3)c2c1C(=O)NC1COC1` [Example 83, 6-Methyl-4-[(1-methylcyclopropyl)amino]-N-(oxetan-3-yl)furo[2,3-d]pyrimidine-5-carboxamide] it is 100 to 1000 nM.
As to `Cc1oc2ncnc(NC3(C)CC3)c2c1C(=O)N1CCC(C)(c2ccc(F)cc2)C1` (centres unmarked) [Example 85, 5-[3-(4-Fluorophenyl)-3-methylpyrrolidine-1-carbonyl]-6-methyl-N-(1-methylcyclopropyl)furo[2,3-d]pyrimidin-4-amine], the “PDE1b (pIC50)” value is above 8.
Consider `Cc1oc2ncnc(NC3(C)CC3)c2c1C(=O)NC1(C(F)(F)F)CC1` [Example 86, 6-Methyl-4-[(1-methylcyclopropyl)amino]-N-[1-(trifluoromethyl)cyclopropyl]furo[2,3-d]pyrimidine-5-carboxamide], for which the IC50 is 10 to 100 nM.
Regarding `Cc1oc2ncnc(NC3(C)CC3)c2c1C(=O)NCc1ccc(C#N)c(F)c1` [Example 87, N-[(4-Cyano-3-fluorophenyl)methyl]-6-methyl-4-[(1-methylcyclopropyl)amino]furo[2,3-d]pyrimidine-5-carboxamide], the IC50 is 10 to 100 nM.
Take `Cc1oc2ncnc(NC3(C)CC3)c2c1C(=O)NCc1ccc(F)c(C#N)c1` [Example 88, N-[(3-Cyano-4-fluorophenyl)methyl]-6-methyl-4-[(1-methylcyclopropyl)amino]furo[2,3-d]pyrimidine-5-carboxamide]: the “PDE1b (pIC50)” value is above 8.
As for `Cc1oc2ncnc(NC3(C)CC3)c2c1C(=O)NC1(C)CC1` [Example 89, 6-Methyl-N-(1-methylcyclopropyl)-4-[(1-methylcyclopropyl)amino]furo[2,3-d]pyrimidine-5-carboxamide], the IC50 was 10 to 100 nM.
Turning to `Cc1oc2ncnc(NC3(C)CC3)c2c1C(=O)NCC1COC1` [Example 90, 6-Methyl-4-[(1-methylcyclopropyl)amino]-N-(oxetan-3-ylmethyl)furo[2,3-d]pyrimidine-5-carboxamide], the IC50 is 100 to 1000 nM.
Turning to `Cc1oc2ncnc(NC3(C)CC3)c2c1C(=O)NC1(C#N)CCC1` [Example 91, N-(1-Cyanocyclobutyl)-6-methyl-4-[(1-methylcyclopropyl)amino]furo[2,3-d]pyrimidine-5-carboxamide], the IC50 was 10 to 100 nM.
Still for that read-out and setting: under `Cc1oc2ncnc(NC3(C)CC3)c2c1C(=O)NCc1ccon1` [Example 92, 6-Methyl-4-[(1-methylcyclopropyl)amino]-N-(1,2-oxazol-3-ylmethyl)furo[2,3-d]pyrimidine-5-carboxamide] stands 10 to 100 nM; under `Cc1oc2ncnc(NC3(C)CC3)c2c1C(=O)NCC1(C)COC1` [Example 93, 6-Methyl-4-[(1-methylcyclopropyl)amino]-N-[(3-methyloxetan-3-yl)methyl]furo[2,3-d]pyrimidine-5-carboxamide], 10 to 100 nM; under `Cc1oc2ncnc(NC3(C)CC3)c2c1C(=O)NCC1(F)COC1` [Example 94, N-[(3-Fluorooxetan-3-yl)methyl]-6-methyl-4-[(1-methylcyclopropyl)amino]furo[2,3-d]pyrimidine-5-carboxamide], 100 to 1000 nM.
Turning to `COCCNC(=O)c1c(C)oc2ncnc(NC3(C)CC3)c12` [Example 95, N-(2-Methoxyethyl)-6-methyl-4-[(1-methylcyclopropyl)amino]furo[2,3-d]pyrimidine-5-carboxamide], the IC50 is 100 to 1000 nM.
The same measure, in the same setting: the figure for `Cc1oc2ncnc(NC3(C)CC3)c2c1C(=O)NCCN1CCOCC1` [Example 96, 6-Methyl-4-[(1-methylcyclopropyl)amino]-N-[2-(morpholin-4-yl)ethyl]furo[2,3-d]pyrimidine-5-carboxamide] is 10 to 100 nM; for `Cc1nc(CNC(=O)c2c(C)oc3ncnc(NC4(C)CC4)c23)cs1` [Example 97, 6-M ethyl-N-[(2-methyl-1,3-thiazol-4-yl)methyl]-4-[(1-methylcyclopropyl)amino]furo[2,3-d]pyrimidine-5-carboxamide] it is 10 to 100 nM.
`Cc1oc2ncnc(NC3(C)CC3)c2c1C(=O)NCc1ccc[nH]1` [Example 98, 6-Methyl-4-[(1-methylcyclopropyl)amino]-N-(1H-pyrrol-2-ylmethyl)furo[2,3-d]pyrimidine-5-carboxamide]: the IC50 is 10 to 100 nM.
Regarding `Cc1oc2ncnc(NC3(C)CC3)c2c1C(=O)NCc1ccn(C)n1` [Example 99, 6-Methyl-N-[(1-methyl-1H-pyrazol-3-yl)methyl]-4-[(1-methylcyclopropyl)amino]furo[2,3-d]pyrimidine-5-carboxamide], the IC50 was 10 to 100 nM.
On the same count and under the same terms, under `Cc1oc2ncnc(NC3(C)CC3)c2c1C(=O)NCc1cocn1` [Example 100, 6-Methyl-4-[(1-methylcyclopropyl)amino]-N-(1,3-oxazol-4-ylmethyl)furo[2,3-d]pyrimidine-5-carboxamide] stands 10 to 100 nM.
As to `Cc1oc2ncnc(NC3(C)CC3)c2c1C(=O)N1CC(O)(c2ccc(F)cc2)C1` [Example 101, 3-(4-Fluorophenyl)-1-{6-methyl-4-[(1-methylcyclopropyl)amino]furo[2,3-d]pyrimidine-5-carbonyl}azetidin-3-ol], the “PDE1b (pIC50)” value was above 8.
In the case of `Cc1oc2ncnc(NC3(C)CC3)c2c1C(=O)NCc1ccnn1C` [Example 102, 6-Methyl-N-[(1-methyl-1H-pyrazol-5-yl)methyl]-4-[(1-methylcyclopropyl)amino]furo[2,3-d]pyrimidine-5-carboxamide], the IC50 was 10 to 100 nM.
On to `COC1(c2ccccc2)CN(C(=O)c2c(C)oc3ncnc(NC4(C)CC4)c23)C1` [Example 103, 5-(3-Methoxy-3-phenylazetidine-1-carbonyl)-6-methyl-N-(1-methylcyclopropyl)furo[2,3-d]pyrimidin-4-amine], for which the “PDE1b (pIC50)” value is reported as above 8.
`Cc1oc2ncnc(NC3(C)CC3)c2c1C(=O)NC1(C)CCC1` [Example 104, 6-Methyl-N-(1-methylcyclobutyl)-4-[(1-methylcyclopropyl)amino]furo[2,3-d]pyrimidine-5-carboxamide]: the IC50 was 10 to 100 nM.
With `Cc1oc2ncnc(NC3(C)CC3)c2c1C(=O)NC1(C)COC1` [Example 105, 6-Methyl-4-[(1-methylcyclopropyl)amino]-N-(3-methyloxetan-3-yl)furo[2,3-d]pyrimidine-5-carboxamide], the IC50 is 10 to 100 nM.
As to `Cc1oc2ncnc(NC3(C)CC3)c2c1C(=O)NC1CCOC1` (centres unmarked) [Example 106, 6-Methyl-4-[(1-methylcyclopropyl)amino]-N-(oxolan-3-yl)furo[2,3-d]pyrimidine-5-carboxamide], the IC50 is 10 to 100 nM.
Regarding `Cc1oc2ncnc(NC3(C)CC3)c2c1C(=O)NC1(C)CCOC1` (centres unmarked) [Example 107, 6-Methyl-4-[(1-methylcyclopropyl)amino]-N-(3-methyloxolan-3-yl)furo[2,3-d]pyrimidine-5-carboxamide], the IC50 is 10 to 100 nM.
As for `Cc1oc2ncnc(NC3(C)CC3)c2c1C(=O)NC1CCOCC1` [Example 108, 6-Methyl-4-[(1-methylcyclopropyl)amino]-N-(oxan-4-yl)furo[2,3-d]pyrimidine-5-carboxamide], the IC50 was 10 to 100 nM.
For the compound `Cc1oc2ncnc(NC3(C)CC3)c2c1C(=O)NC1(C)CCOCC1` [Example 109, 6-Methyl-4-[(1-methylcyclopropyl)amino]-N-(4-methyloxan-4-yl)furo[2,3-d]pyrimidine-5-carboxamide], the IC50 was 10 to 100 nM.
Still for that read-out and setting: the figure for `Cc1oc2ncnc(NC3(C)CC3)c2c1C(=O)NC1CCOC(C)(C)C1` (centres unmarked) [Example 110, N-(2,2-Dimethyloxan-4-yl)-6-methyl-4-[(1-methylcyclopropyl)amino]furo[2,3-d]pyrimidine-5-carboxamide] is 10 to 100 nM; for `Cc1oc2ncnc(NC3(C)CC3)c2c1C(=O)NCc1cccn1C` [Example 111, 6-Methyl-N-[(1-methyl-1H-pyrrol-2-yl)methyl]-4-[(1-methylcyclopropyl)amino]furo[2,3-d]pyrimidine-5-carboxamide] it is 10 to 100 nM; for `Cc1nc(CNC(=O)c2c(C)oc3ncnc(NC4(C)CC4)c23)c(C)o1` [Example 112, N-[(Dimethyl-1,3-oxazol-4-yl)methyl]-6-methyl-4-[(1-methylcyclopropyl)amino]furo[2,3-d]pyrimidine-5-carboxamide] it is 10 to 100 nM.

These data come from US20250145633A1, “SUBSTITUTED FURANOPYRIMIDINE COMPOUNDS AS PDE1 INHIBITORS” (Dart NeuroScience, LLC, priority 2017, published 2025).
